What was measured:
Format in all cases: in vivo
Pyricularia oryzae = conditions: for Test C disease control rating: rice blast, 100 = 100% disease control, 0 = no control, unmarked entries (standard test concentration); for Test C disease control rating (100 = 100% disease control, 0 = no disease control): rice seedlings sprayed to run-off, inoculated the following day, rating relative to controls, unmarked compounds (standard test rate)
Phytophthora infestans = conditions: for Test D disease control rating: tomato late blight, 100 = 100% disease control, 0 = no control, unmarked entries (standard test concentration); for Test D disease control rating (100 = 100% disease control, 0 = no disease control): tomato seedlings sprayed to run-off, inoculated the following day, rating relative to controls, unmarked compounds (standard test rate)
Botrytis cinerea = experiment: Test E: gray mold, preventive spray on cucumber seedlings; conditions: gray mold on cucumber; 100 = 100% disease control, 0 = no control; unmarked entries (standard test concentration)
Description: The resulting test suspensions were then used in the following tests. Spraying these 200 ppm test suspensions to the point of run-off on the test plants is the equivalent of a rate of 500 g/ha.
The test suspension was sprayed to the point of run-off on cucumber seedlings. The following day the seedlings were inoculated with a spore suspension of Botrytis cinerea (the causal agent of gray mold on many crops) and incubated in a saturated atmosphere at 20° C. for 48 h, and moved to a growth chamber at 20° C. for 5 days, after which disease ratings were made.
(§1) Results for Tests A-E are given in Table A. In the table, a rating of 100 indicates 100% disease control and a rating of 0 indicates no disease control (relative to the controls). A dash (-) indicates no test results. ND indicates disease control not determined due to phytotoxicity.

Puccinia recondita = experiment: Test B: wheat leaf rust, preventive spray on wheat seedlings; conditions: for Test B disease control rating: wheat leaf rust, 100 = 100% disease control, 0 = no control, unmarked entries (standard test concentration); for Test B disease control rating (100 = 100% disease control, 0 = no disease control): wheat seedlings sprayed to run-off, inoculated the following day, rating relative to controls, unmarked compounds (standard test rate)
Description: (§2) The resulting test suspensions were then used in the following tests. […]
The test suspension was sprayed to the point of run-off on wheat seedlings. The following day the seedlings were inoculated with a spore suspension of Puccinia recondita (the causal agent of wheat leaf rust) and incubated in a saturated atmosphere at 20° C. for 24 h, and then moved to a growth chamber at 20° C. for 6 days, after which disease ratings were made.
as §1

[1] = system: Eiysiphe graminis f. sp. tritici; experiment: Test A: wheat powdery mildew, preventive spray on wheat seedlings; conditions: for Test A disease control rating: wheat powdery mildew, 100 = 100% disease control, 0 = no control relative to controls, unmarked entries (standard test concentration); for Test A disease control rating (100 = 100% disease control, 0 = no disease control): wheat seedlings sprayed to run-off, inoculated the following day, rating relative to controls, unmarked compounds (standard test rate)
Description: as §2
The test suspension was sprayed to the point of run-off on wheat seedlings. The following day the seedlings were inoculated with a spore dust of Eiysiphe graminis f. sp. tritici, (the causal agent of wheat powdery mildew) and incubated in a growth chamber at 20° C. for 7 days, after which disease ratings were made.
as §1

Row | SMILES | Test C disease control rating (Pyricularia oryzae) | Test D disease control rating (Phytophthora infestans) | Test E disease control rating (Botrytis cinerea) | Test B disease control rating (Puccinia recondita) | Test A disease control rating [1] | Test C disease control rating (100 = 100% disease control, 0 = no disease control) (Pyricularia oryzae) | Test D disease control rating (100 = 100% disease control, 0 = no disease control) (Phytophthora infestans) | Test B disease control rating (100 = 100% disease control, 0 = no disease control) (Puccinia recondita) | Test A disease control rating (100 = 100% disease control, 0 = no disease control) [1]
1 | CC(COc1ccccc1)NC(=O)C(C#N)C(C)(C)C (mixture of isomers) [1a] | 53% | 0% | 0% | 0% | 60% | – | – | – | –
2 | CCCc1ccccc1OCC(C)NC(=O)C(C#N)C(C)(C)C (mixture of isomers) [21b] | 99% | – | 0% | 27% | 37% | – | – | – | –
3 | CCC1(C(=O)NC(C)COc2ccccc2)C(C)C1(Cl)Cl (mixture of isomers) [77a] | 86% | – | 0% | 28% | 73% | – | – | – | –
4 | CCC1(C(=O)NC(C)COc2ccccc2F)C(C)C1(Cl)Cl (mixture of isomers) [78b] | 99% | – | 0% | 0% | 84% | – | – | – | –
5 | CCC1(C(=O)NC(C)COc2cccc(Br)c2)C(C)C1(Cl)Cl (mixture of isomers) [85a] | 53% | – | 0% | 0% | 55% | – | – | – | –
6 | CCC1(C(=O)NC(C)COc2ccccc2C#N)C(C)C1(Cl)Cl (mixture of isomers) [89b] | 91% | – | 47% | 68% | 26% | – | – | – | –
7 | CC(COc1c(F)c(F)cc(F)c1F)NC(=O)C(C#N)C(C)(C)C (mixture of isomers) [compound 195] | 99% | 32% | – | 0% | 85% | – | – | – | –
8 | CC(COc1c(Br)cc(F)cc1Br)NC(=O)C(C#N)C(C)(C)C (mixture of isomers) [compound 196] | 86% | 0% | – | 0% | 0% | – | – | – | –
9 | CC(COc1c(Cl)cc(F)cc1Cl)NC(=O)C(C#N)C(C)(C)C (mixture of isomers) [compound 197] | 86% | 0% | – | 0% | 59% | – | – | – | –
10 | CC(COc1cc(Cl)ccc1F)NC(=O)C(C#N)C(C)C(C)(C)C (mixture of isomers) [compound 199] | 97% | 5% | – | 68% | 85% | – | – | – | –
11 | CC(COc1cc(Cl)ccc1F)NC(=O)C(C#N)C(C)(C)C=CF (mixture of isomers) [compound 224] | – | – | – | – | – | 100% | 5% | 0% | 85%
12 | CC(COc1cc(F)ccc1OC(F)(F)C(F)F)NC(=O)C(C#N)C(C)(C=CF)CF (mixture of isomers) [compound 225] | – | – | – | – | – | 100% | 5% | 86% | 91%
13 | Cc1ccc(F)c(OCC(C)NC(=O)C(C#N)C(C)(C=CF)CF)c1 (mixture of isomers) [compound 226] | – | – | – | – | – | 100% | 0% | 0% | 0%
14 | Cc1ccc(Cl)c(OCC(C)NC(=O)C(C#N)C(C)(C=CF)CF)c1 (mixture of isomers) [compound 227] | – | – | – | – | – | 100% | 0% | 0% | 0%
15 | C#CC(C)(C)C(C#N)C(=O)NC(C)COc1cc(Cl)ccc1F (mixture of isomers) [compound 320] | – | – | – | – | – | 100% | 0% | 68% | 59%
16 | C[C@H](COc1cc(Cl)ccc1F)NC(=O)C(C#N)C(C)(C)C (single isomer, unassigned) [198a] | 100% | 5% | – | 28% | 75% | – | – | – | –
17 | C[C@H](COc1cc(Cl)ccc1F)NC(=O)C(C#N)C(C)(C)C (single isomer, unassigned) [198b] | 100% | 5% | – | 28% | 59% | – | – | – | –
18 | C=CC(C)(C)C(C#N)C(=O)N[C@H](C)COc1cc(Cl)ccc1F (single isomer, unassigned) [200a] | 100% | 5% | – | 0% | 0% | – | – | – | –
19 | C=CC(C)(C)C(C#N)C(=O)N[C@H](C)COc1cc(Cl)ccc1F (single isomer, unassigned) [200b] | 100% | 5% | – | 0% | 0% | – | – | – | –
20 | CCC1(C(=O)NCCCn2c(C#N)cc(Cl)c2Cl)C(C)C1(Cl)Cl (centres unmarked) [compound 151] | 91% | – | 0% | 0% | 0% | – | – | – | –
21 | CCC1(C(=O)NCCCn2c(Cl)ccc2C#N)C(C)C1(Cl)Cl (centres unmarked) [compound 152] | 86% | – | 0% | 68% | 55% | – | – | – | –
22 | CCC1(C(=O)NC(C)COc2cc(F)c(F)cc2Br)C(C)C1(Cl)Cl (centres unmarked) [compound 235] | – | – | – | – | – | 91% | 0% | 0% | 0%
23 | CCC1(C(=O)NC(C)COc2ccc(F)c(F)c2F)C(C)C1(Cl)Cl (centres unmarked) [compound 238] | – | – | – | – | – | 74% | 0% | 0% | 62%
24 | CCC1(C(=O)NC(C)COc2cc(Cl)ccc2F)C(C)C1(Cl)Cl (centres unmarked) [compound 252] | – | – | – | – | – | 99% | 5% | 0% | 0%
25 | CCC1(C(=O)NC(C)COc2cc(F)ccc2Cl)C(C)C1(Cl)Cl (centres unmarked) [compound 253] | – | – | – | – | – | 100% | 0% | 0% | 59%

Source: patent publication US6642392B1 (priority 1997, dated 2003)
